Measurements as given in EP1202975B1, “SUBSTITUTED POLYCYCLIC ARYL AND HETEROARYL PYRAZINONES USEFUL FOR SELECTIVE INHIBITION OF THE COAGULATION CASCADE” (Pharmacia Corporation, priority 1999, dated 2000).
Where two headings read alike, the source gives them in different places.

What was measured:
TF-VIIa = target: T1, TF-VIIa (Homo sapiens, UniProt P08709); assay: TF-VIIa Assay; type: biochemical
T1 construct: 2nM recombinant human factor VIIa; purchased American Diagnostica, Greenwich CT; host or cells: soluble TF made in house in E. coli
T1 sequence (P08709 213-466 limits assumed): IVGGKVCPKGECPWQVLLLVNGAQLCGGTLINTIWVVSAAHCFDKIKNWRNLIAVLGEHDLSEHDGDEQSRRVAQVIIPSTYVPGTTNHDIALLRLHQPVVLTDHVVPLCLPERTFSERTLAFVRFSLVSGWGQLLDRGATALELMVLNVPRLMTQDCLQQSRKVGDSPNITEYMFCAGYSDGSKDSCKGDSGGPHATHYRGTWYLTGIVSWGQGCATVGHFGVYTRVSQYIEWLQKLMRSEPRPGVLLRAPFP
T1 sequence (P08709 61-212 limits assumed): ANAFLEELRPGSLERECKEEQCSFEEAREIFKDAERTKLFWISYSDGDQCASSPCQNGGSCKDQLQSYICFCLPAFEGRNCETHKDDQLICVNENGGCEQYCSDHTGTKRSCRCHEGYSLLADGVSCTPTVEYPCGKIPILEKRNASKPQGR
T1 sequence (P13726 33-251 partner limits assumed): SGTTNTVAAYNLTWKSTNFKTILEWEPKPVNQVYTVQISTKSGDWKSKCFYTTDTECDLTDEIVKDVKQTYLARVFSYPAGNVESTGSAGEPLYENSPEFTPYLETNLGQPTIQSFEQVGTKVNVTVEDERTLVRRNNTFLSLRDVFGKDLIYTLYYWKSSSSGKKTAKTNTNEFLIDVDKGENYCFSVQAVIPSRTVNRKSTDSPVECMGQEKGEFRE

Human factor Xa = Human factor Xa (Homo sapiens, UniProt P00742)
Chain of Human factor Xa (P00742 235-488 limits assumed): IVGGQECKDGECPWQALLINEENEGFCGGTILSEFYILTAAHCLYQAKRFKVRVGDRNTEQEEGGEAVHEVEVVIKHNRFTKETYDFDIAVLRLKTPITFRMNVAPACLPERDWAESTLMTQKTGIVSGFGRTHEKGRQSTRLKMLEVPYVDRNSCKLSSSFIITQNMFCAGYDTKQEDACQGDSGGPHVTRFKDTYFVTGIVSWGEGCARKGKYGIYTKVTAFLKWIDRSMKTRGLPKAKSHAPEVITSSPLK
Chain of Human factor Xa (P00742 41-179 limits assumed): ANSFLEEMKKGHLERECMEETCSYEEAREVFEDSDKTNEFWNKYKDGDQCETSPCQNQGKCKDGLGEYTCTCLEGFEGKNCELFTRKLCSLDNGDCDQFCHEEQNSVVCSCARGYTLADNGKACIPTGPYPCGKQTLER

[1] = cells given as a plain number (IC50); read-out: IC50 or % Inhibition TF-VIIa (30 µM)

Row | Structure (SMILES) | % Inhibition TF-VIIa (100 µM) (TF-VIIa) [%] | % Inhibition Factor Xa (100 µM) (Human factor Xa) [%] | also measured
1 | CC(C)Nc1nc(Cl)c(-c2cccc(N)c2)n(CC(=O)NCCc2ccc(C(=N)N)cc2)c1=O [Example 62] |  |  | IC50 (TF-VIIa; read-out: IC50 or % Inhibition TF-VIIa (30 µM); cells given as a plain number (IC50)): 5600 nM; IC50 or % Inhibition Factor Xa (30 µM) (Human factor Xa): 10%
2 | COC(=O)c1cccc(-c2c(Cl)nc(NC(C)C)c(=O)n2CC(=O)NCc2ccc(C(=N)N)cc2)c1 [Example 64] |  |  | IC50 (TF-VIIa; [1]): 780 nM; IC50 or % Inhibition Factor Xa (30 µM) (Human factor Xa): 19%
3 | CC(C)Nc1nc(Cl)c(-c2cccc(C(=O)O)c2)n(CC(=O)NCc2ccc(C(=N)N)cc2)c1=O [Example 65] |  |  | IC50 (TF-VIIa; [1]): 360 nM; IC50 or % Inhibition Factor Xa (30 µM) (Human factor Xa): 12%
4 | N=C(N)c1ccc(CNC(=O)Cn2c(-c3ccccc3O)c(Cl)nc(NC3CCC3)c2=O)cc1 [Example 66] |  |  | IC50 (TF-VIIa; [1]): 340 nM; IC50 or % Inhibition Factor Xa (30 µM) (Human factor Xa): 0%
5 | CC(=O)Nc1cccc(-c2c(Cl)nc(NC(C)C)c(=O)n2CC(=O)NCCc2ccc(C(=N)N)cc2)c1 [Example 68] |  |  | IC50 or % Inhibition TF-VIIa (30 µM) (TF-VIIa): 32%; IC50 or % Inhibition Factor Xa (30 µM) (Human factor Xa): 6%
6 | Cc1c(Cl)nc(NCc2ccccc2)c(=O)n1CC(=O)NCCc1ccncc1 [Example E-0001] | 0 | 1 | 
7 | Cc1c(Cl)nc(NCCc2ccccc2)c(=O)n1CC(=O)NCCc1ccncc1 [Example E-0002] | 0 | 0 | 
8 | Cc1c(Cl)nc(NCCc2cccc(Cl)c2)c(=O)n1CC(=O)NCCc1ccncc1 [Example E-0003] | 0 | 0 | 
9 | Cc1c(Cl)nc(NCCc2ccc(Cl)cc2)c(=O)n1CC(=O)NCCc1ccncc1 [Example E-0004] | 0 | 0 | 
10 | Cc1c(Cl)nc(NCCc2cccnc2)c(=O)n1CC(=O)NCCc1ccncc1 [Example E-0005] | 0 | 0 | 
11 | Cc1c(Cl)nc(NCCc2ccncc2)c(=O)n1CC(=O)NCCc1ccncc1 [Example E-0006] | 2 | 0 | 
12 | Cc1c(Cl)nc(NCCN2CCOCC2)c(=O)n1CC(=O)NCCc1ccncc1 [Example E-0007] | 0 | 0 | 
13 | Cc1c(Cl)nc(NCc2ccncc2)c(=O)n1CC(=O)NCCc1ccncc1 [Example E-0008] | 0 | 0 | 
14 | O=C(Cn1c(-c2ccccc2)c(Cl)nc(NCCc2ccc(Cl)cc2)c1=O)NCCc1ccncc1 [Example E-0012] | 0 | 0 | 
15 | O=C(Cn1c(-c2ccccc2)c(Cl)nc(NCCN2CCOCC2)c1=O)NCCc1ccncc1 [Example E-0015] | 0 | 0 | 

Second part, led by results:

Row | % Inhibition TF-VIIa (100 µM) (TF-VIIa) [%] | % Inhibition Factor Xa (100 µM) (Human factor Xa) [%] | Structure (SMILES) | also measured
16 | 0 | 1 | O=C(Cn1c(-c2ccccc2)c(Cl)nc(NCc2ccccc2)c1=O)NCCc1ccncc1 [Example E-0009] | 
17 | 0 | 0 | O=C(Cn1c(-c2ccccc2)c(Cl)nc(NCCc2ccccc2)c1=O)NCCc1ccncc1 [Example E-0010] | 
18 | 0 | 0 | O=C(Cn1c(-c2ccccc2)c(Cl)nc(NCCc2cccc(Cl)c2)c1=O)NCCc1ccncc1 [Example E-0011] | 
19 | 0 | 0 | O=C(Cn1c(-c2ccccc2)c(Cl)nc(NCCc2cccnc2)c1=O)NCCc1ccncc1 [Example E-0013] | 
20 | 0 | 0 | O=C(Cn1c(-c2ccccc2)c(Cl)nc(NCCc2ccncc2)c1=O)NCCc1ccncc1 [Example E-0014] | 
21 | 0 | 0 | O=C(Cn1c(-c2ccccc2)c(Cl)nc(NCc2ccncc2)c1=O)NCCc1ccncc1 [Example E-0016] | 
22 | 0 | 0 | COc1ccc(-c2c(Cl)nc(NCc3ccccc3)c(=O)n2CC(=O)NCCc2ccncc2)cc1 [Example E-0033] | 
